US20200392158A1, “INHIBITORS OF LEUCINE RICH REPEAT KINASE 2” (GLAXOSMITHKLINE INTELLECTUAL PROPERTY DEVELOPMENT LIMITED, priority 2017, published 2020)

Target: T1, LRRK2 kinase in SH-SY5Y cells over-expressing recombinant full length LRRK2 (Homo sapiens, UniProt Q5S007)
T1 construct: A BacMam virus expressing full length recombinant LRRK2 was purchased from Invitrogen; host or cells: SH-SY5Y human neuroblastoma cells transduced with BacMam LRRK2 virus
Test: Recombinant cellular LRRK2 AlphaScreen assay (LRRK2 Ser935 phosphorylation)
Type: cell-based
Settings: 60 min
Text: b. Recombinant Cellular LRRK2 AlphaScreen Assay
To determine the activity of compounds against LRRK2 kinase in cells, the observed LRRK2 kinase-dependent modulation of LRRK2 Ser 935 phosphorylation (Dzamko et al., 2010, Biochem. J. 430: 405-413) was utilized to develop a quantitative 384 well plate-based immunoassay of LRRK2 Ser935 phosphorylation in the human neuroblastoma cell line SH-SY5Y, engineered to over-express recombinant full length LRRK2 protein.
A BacMam virus expressing full length recombinant LRRK2 was purchased from Invitrogen and amplified by inoculation of SF-9 cells at MOI 0.3 for 4-5 days in Sf-900 III SFM medium supplemented with 3% fetal bovine serum. Infected cell cultures were then centrifuged at 2000 g for 20 minutes, viral supernatant titer determined by anti-gp64 plaque assay and stored at 4° C.
Affinity-purified anti-phospho LRRK2 Ser935 sheep polyclonal antibody (Dzamko et al., 2010, Biochem. J. 430: 405-413) was biotinylated by standard methods (PerkinElmer). Anti-LRRK2 rabbit polyclonal antibody was purchased from Novus Biologicals. AlphaScreen Protein A IgG Kit (including acceptor and donor beads) was purchased from Perkin Elmer.
SH-SY5Y cells were grown in DMEM/F12 medium with 10% dialysed fetal bovine serum and harvested by treatment with 0.5% trypsin-EDTA for 5 minutes at 37° C. followed by centrifugation at 1000 rpm for 4 minutes. The cell pellet was resuspended in Opti-MEM reduced serum media (Invitrogen) at 200,000 cells/ml and mixed with the BacMam LRRK2 virus at M01=50. 50 μl cell solutions were then dispensed to each well of a 384-well plate and incubated at 37° C., 5% CO2 for 24 hours.
Compounds were prepared at 10× final assay concentration as 11 point 1 in 4 serial I dilutions in Opti-MEM reduced serum medium (Invitrogen 31985070) containing 1% DMSO. On the day of assay, 5.5 μl of the compound solutions were transferred from the compound plate to the cell assay plate to achieve a top final assay concentration of 10 uM. DMSO (0.1% final assay concentration) was added to column 6 and 2-(benzyloxy)-5-methyl-4-(1-methyl-1H-pyrazol-4-yl)-N-(pyridin-3-yl)benzamide (2 μM final assay concentration) was added to column 18 to serve as 0% and 100% inhibition controls, respectively.
Cells were incubated at 37° C., 5% CO2 for 60 minutes. The medium was then removed and cells lysed by addition of 20 μl of cell lysis buffer (Cell Signaling Technology) and incubation at 4° C. for 20 minutes. 10 μl of antibody/acceptor bead mix [(1/1000 biotinylated-pS935 LRRK2 antibody, 1/1000 total-LRRK2 antibody, 1/100 Acceptor beads in AlphaScreen detection buffer (25 mM Hepes (pH 7.4), 0.5% Triton X-100, 1 mg/ml Dextran 500 and 0.1% BSA)] was then added to each well and plates incubated for 2 hours at ambient temperature in the dark. 10 μl of donor beads solution (1/33.3 donor beads in AlphaScreen detection buffer) was then added to each well. Following incubation for a further 2 hours at ambient temperature in the dark, plates were read on an EnVision™ plate reader at emission 520-620 nm with excitation 680 nm. Dose response curve data was based on a sigmoidal dose-response model.

T1 sequence (Q5S007 whole entry): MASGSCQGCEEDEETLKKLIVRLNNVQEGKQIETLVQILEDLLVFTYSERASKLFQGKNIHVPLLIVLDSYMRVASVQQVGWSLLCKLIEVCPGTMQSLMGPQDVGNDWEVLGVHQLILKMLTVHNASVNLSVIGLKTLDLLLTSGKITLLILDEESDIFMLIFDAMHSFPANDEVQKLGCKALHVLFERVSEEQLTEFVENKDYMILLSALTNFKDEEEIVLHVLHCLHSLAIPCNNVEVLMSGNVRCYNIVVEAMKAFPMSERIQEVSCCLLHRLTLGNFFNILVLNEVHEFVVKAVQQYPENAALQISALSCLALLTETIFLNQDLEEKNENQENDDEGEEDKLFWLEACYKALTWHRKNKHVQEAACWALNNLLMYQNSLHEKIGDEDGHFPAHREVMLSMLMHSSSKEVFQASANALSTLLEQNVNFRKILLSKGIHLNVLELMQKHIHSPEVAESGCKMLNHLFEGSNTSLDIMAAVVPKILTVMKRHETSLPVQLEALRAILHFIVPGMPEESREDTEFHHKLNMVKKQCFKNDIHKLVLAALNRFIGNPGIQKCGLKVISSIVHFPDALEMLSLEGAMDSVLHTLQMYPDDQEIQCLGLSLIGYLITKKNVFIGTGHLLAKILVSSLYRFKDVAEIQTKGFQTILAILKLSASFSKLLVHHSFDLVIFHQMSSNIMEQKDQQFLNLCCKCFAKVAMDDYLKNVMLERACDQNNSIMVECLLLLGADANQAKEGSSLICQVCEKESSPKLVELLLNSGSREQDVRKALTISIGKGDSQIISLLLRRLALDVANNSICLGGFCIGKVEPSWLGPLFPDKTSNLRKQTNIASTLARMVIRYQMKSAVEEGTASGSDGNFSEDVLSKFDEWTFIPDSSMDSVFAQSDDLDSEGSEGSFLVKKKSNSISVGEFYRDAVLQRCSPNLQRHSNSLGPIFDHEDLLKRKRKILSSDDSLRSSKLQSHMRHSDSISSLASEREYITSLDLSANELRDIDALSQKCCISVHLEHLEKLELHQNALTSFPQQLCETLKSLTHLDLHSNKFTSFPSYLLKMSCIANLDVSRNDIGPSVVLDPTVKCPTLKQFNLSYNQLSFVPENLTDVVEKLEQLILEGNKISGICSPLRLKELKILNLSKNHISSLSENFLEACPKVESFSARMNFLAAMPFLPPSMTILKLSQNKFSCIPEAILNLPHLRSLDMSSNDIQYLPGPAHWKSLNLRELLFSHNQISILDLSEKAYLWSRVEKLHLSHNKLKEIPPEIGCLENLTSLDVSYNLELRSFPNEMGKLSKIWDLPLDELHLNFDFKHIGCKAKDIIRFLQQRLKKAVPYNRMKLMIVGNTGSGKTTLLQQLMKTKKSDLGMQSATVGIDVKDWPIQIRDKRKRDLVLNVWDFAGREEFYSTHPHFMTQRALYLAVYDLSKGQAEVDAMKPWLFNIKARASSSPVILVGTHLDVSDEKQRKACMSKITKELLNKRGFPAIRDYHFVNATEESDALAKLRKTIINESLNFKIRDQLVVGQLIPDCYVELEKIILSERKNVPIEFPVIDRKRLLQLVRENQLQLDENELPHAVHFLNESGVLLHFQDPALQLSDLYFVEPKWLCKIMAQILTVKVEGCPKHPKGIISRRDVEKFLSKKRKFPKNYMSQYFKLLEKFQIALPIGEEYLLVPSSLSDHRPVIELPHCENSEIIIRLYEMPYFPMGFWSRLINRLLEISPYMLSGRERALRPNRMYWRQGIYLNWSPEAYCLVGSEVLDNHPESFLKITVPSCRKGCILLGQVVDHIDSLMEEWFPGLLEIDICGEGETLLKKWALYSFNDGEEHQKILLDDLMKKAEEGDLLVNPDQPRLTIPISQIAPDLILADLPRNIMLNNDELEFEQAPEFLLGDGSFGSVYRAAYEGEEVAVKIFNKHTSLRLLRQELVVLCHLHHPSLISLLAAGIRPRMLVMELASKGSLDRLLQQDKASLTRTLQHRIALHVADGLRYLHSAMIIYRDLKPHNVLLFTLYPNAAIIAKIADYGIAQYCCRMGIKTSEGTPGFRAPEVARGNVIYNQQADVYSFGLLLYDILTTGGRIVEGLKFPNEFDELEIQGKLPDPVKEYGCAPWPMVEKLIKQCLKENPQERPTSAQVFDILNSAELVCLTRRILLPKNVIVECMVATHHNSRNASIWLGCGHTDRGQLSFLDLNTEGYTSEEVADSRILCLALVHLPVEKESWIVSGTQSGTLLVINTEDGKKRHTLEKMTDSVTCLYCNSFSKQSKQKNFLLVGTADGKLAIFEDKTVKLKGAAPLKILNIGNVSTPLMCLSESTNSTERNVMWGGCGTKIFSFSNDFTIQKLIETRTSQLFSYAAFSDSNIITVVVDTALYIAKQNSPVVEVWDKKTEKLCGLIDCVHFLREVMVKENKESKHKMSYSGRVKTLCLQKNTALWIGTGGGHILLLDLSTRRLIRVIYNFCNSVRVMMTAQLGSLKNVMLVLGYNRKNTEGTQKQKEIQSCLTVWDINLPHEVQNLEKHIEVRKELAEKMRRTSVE

| Structure (SMILES) | IC50 |
| --- | --- |
| COCC1CCOc2nn(C3CCOCC3)c(C)c2Nc2ncc(Br)c(n2)N1 (single isomer, unassigned) [E168, 14-Bromo-11-(methoxymethyl)-4-methyl-5-(oxan-4-yl)-8-oxa-2,5,6,12,16,17-hexaazatricyclo[11.3.1.0^3,7] heptadeca-1(16),3,6,13(17),14-pentaene] | ≤ 0.1 µM |
| Cc1c2c(nn1C1COC1)OCC(F)CNc1nc(ncc1Cl)N2 (single isomer, unassigned) [E322, 14-Chloro-10-fluoro-4-methyl-5-(oxetan-3-yl)-8-oxa-2,5,6,12,16,17-hexaazatricyclo[11.3.1.0^3,7]heptadeca-1(16),3,6,13(17),14-pentaene] | ≤ 0.1 µM |
| Cc1c2c(nn1C1COCCC1F)OCCCNc1nc(ncc1Cl)N2 (single isomer, unassigned) [E86, 14-chloro-5-[4-fluorooxan-3-yl]-4-methyl-8-oxa-2,5,6,12,16,17-hexaazatricyclo [11.3.1.0^3,7]heptadeca-1(16),3,6,13(17),14-pentaene] | ≤ 0.1 µM |
| Cc1c2c(nn1C1CCN(C3COC3)CC1F)OCCC(C)Nc1nc(ncc1Cl)N2 (single isomer, unassigned) [E96, 14-chloro-5-[3-fluoro-1-(oxetan-3-yl)piperidin-4-yl]-4,11-dimethyl-8-oxa-2,5,6,12,16,17-hexaazatricyclo[11.3.1.0^3,7]heptadeca-1(16),3,6,13(17),14-pentaene] | ≤ 0.1 µM |
| Cc1c2c(nn1C1CCOC1)OCCCNc1nc(ncc1Cl)N2 (stereo not shown) [E122, 14-Chloro-4-methyl-5-(oxolan-3-yl)-8-oxa-2,5,6,12,16,17-hexa azatricyclo[11.3.1.0^3,7]heptadeca-1(16),3,6,13(17),14-pentaene] | ≤ 0.1 µM |
| N#Cc1c2c(nn1C1CCOCC1)OCCCNc1nc(ncc1Cl)N2 [E14, 14-Chloro-5-(oxan-4-yl)-8-oxa-2,5,6,12,16,17-hexaazatricyclo[11.3.1.0^3,7]heptadeca-1(16),3,6,13(17),14-pentaene-4-carbonitrile] | ≤ 0.1 µM |
| Cc1c2c(nn1C1CCOCC1)OCCC(C)Oc1nc(ncc1Cl)N2 (single isomer, unassigned) [E330, 14-Chloro-4,11-dimethyl-5-(oxan-4-yl)-8,12-dioxa-2,5,6,16,17-pentaazatricyclo[11.3.1.0^3,7]heptadeca-1(17), 3,6,13,15-pentaene] | ≤ 0.1 µM |
| Cc1c2c(nn1C1CCOCC1)OCCCNc1nc(ncc1C(C)(C)C)N2 [E441, 14-tert-Butyl-4-methyl-5-(oxan-4-yl)-8-oxa-2,5,6,12,16,17-hexaazatricyclo[11.3.1.0^3,7]heptadeca-1(16),3,6,13(17),14-pentaene] | > 10 µM |
| Cc1c2c(nn1C1CCOCC1)OCC(OC(F)F)CNc1nc(ncc1Cl)N2 (single isomer, unassigned) [E284, 14-Chloro-10-(difluoromethoxy)-4-methyl-5-(oxan-4-yl)-8-oxa-2,5,6,12,16,17-hexaazatricyclo[11.3.1.0^3,7] heptadeca-1(16),3,6,13(17),14-pentaene] | ≤ 0.1 µM |
| Cc1c2c(nn1C1CCOCC1)OCC[C@@H](C)N(C)c1nc(ncc1Cl)N2 [E359, (11R)-14-Chloro-4,11,12-trimethyl-5-(oxan-4-yl)-8-oxa-2,5,6,12,16,17-hexaazatricyclo[11.3.1.0^3,7]heptadeca-1(16),3,6,13(17),14-pentaene] | ≤ 0.1 µM |
| Cc1c2c(nn1C1COCCC1F)OCC[C@@H](C)Nc1nc(ncc1Cl)N2 (single isomer, unassigned) [E325] | ≤ 0.1 µM |
| Cc1c2c(nn1C1CCOCC1(F)F)OCC[C@@H](C)Nc1nc(ncc1Cl)N2 (single isomer, unassigned) [E392] | ≤ 0.1 µM |
| Cc1c2c(nn1C1CCCOC1)OCCCNc1nc(ncc1Cl)N2 (single isomer, unassigned) [E10, 14-Chloro-4-methyl-5-(oxan-3-yl)-8-oxa-2,5,6,12,16,17-hexaaza tricyclo-[11.3.1.0^3,7]heptadeca-1(16),3,6,13(17),14-pentaene] | ≤ 0.1 µM |
| Cc1c2c(nn1C1CN(C3COC3)CCC1(F)F)OCCCNc1nc(ncc1Cl)N2 (single isomer, unassigned) [E408, 14-Chloro-5-[4,4-difluoro-1-(oxetan-3-yl)piperidin-3-yl]-4-methyl-8-oxa-2,5,6,12,16,17-hexaazatricyclo[11.3.1.0^3,7]heptadeca-1(16),3,6,13(17),14-pentaene] | ≤ 0.1 µM |
| Cc1c2c(nn1C1(C)CCOCC1)OCCCNc1nc(ncc1Cl)N2 [E436, 14-Chloro-4-methyl-5-(4-methyloxan-4-yl)-8-oxa-2,5,6,12,16,17-hexaazatricyclo[11.3.1.0^3,7]heptadeca-1(16),3,6,13(17),14-pentaene] | ≤ 0.1 µM |
| CC1CCOc2nn(C3CCOCC3)c(Cl)c2Nc2ncc(Cl)c(n2)N1 (stereo not shown) [E343, 4,14-Dichloro-11-methyl-5-(oxan-4-yl)-8-oxa-2,5,6,12,16,17-hexaazatricyclo[11.3.1.0^3,7]heptadeca-1(16),3,6,13(17),14-pentaene] | ≤ 0.1 µM |
| Cc1c2c(nn1C1(C)CCOCC1)OCC[C@@H](C)Nc1nc(ncc1Cl)N2 [E437, (11R)-14-Chloro-4,11-dimethyl-5-(4-methyloxan-4-yl)-8-oxa-2,5,6,12,16,17-hexaazatricyclo[11.3.1.0^3,7]heptadeca-1(16),3,6,13(17),14-pentaene] | ≤ 0.1 µM |

Second part, the compound after the results:

| IC50 | Structure (SMILES) |
| --- | --- |
| ≤ 0.1 µM | Cc1c2c(nn1C1CC(C)OC(C)C1)OCCCNc1nc(ncc1Cl)N2 (single isomer, unassigned) [E200, 14-Chloro-5-(2,6-dimethyloxan-4-yl)-4-methyl-8-oxa-2,5,6,12,16,17-hexaazatricyclo[11.3.1.0^3,7]heptadeca-1(16),3,6,13(17),14-pentaene] |
| ≤ 0.1 µM | Cc1c2c(nn1C1CCOCC1F)OCCC(C)Nc1nc(ncc1Cl)N2 (single isomer, unassigned) [E24, 14-chloro-5-(3-fluorooxan-4-yl)-4,11-dimethyl-8-oxa-2,5,6,12,16,17-hexaazatricyclo [11.3.1.0^3,7]heptadeca-1(17),3,6,13,15-pentaene] |
| ≤ 0.1 µM | C[C@@H]1CCOc2nn(C3CN(C4COC4)CCC3(F)F)c(Cl)c2Nc2ncc(Cl)c(n2)N1 (single isomer, unassigned) [E442] |
| ≤ 0.1 µM | Cc1c2c(nn1C1CC(C)OC(C)C1)OCCC(C)Nc1nc(ncc1Cl)N2 (single isomer, unassigned) [E194, 14-Chloro-5-(2,6-dimethyloxan-4-yl)-4,11-dimethyl-8-oxa-2,5,6,12,16,17-hexaazatricyclo[11.3.1.0^3,7] heptadeca-1(16),3,6,13(17),14-pentaene] |
| ≤ 0.1 µM | Cc1c2c(nn1C1CCOCC1)OCCCNc1cc(ncc1C(F)(F)F)N2 [E125, 4-Methyl-5-(oxan-4-yl)-14-(trifluoromethyl)-8-oxa-2,5,6,12,16-pentaazatricyclo[11.3.1.0^3,7]heptadeca-1(16),3,6,13(17),14-pentaene] |
| ≤ 0.1 µM | COC1CNc2nc(ncc2Cl)Nc2c(nn(C3CCOCC3)c2C)OC1 (stereo not shown) [E2, 14-Chloro-10-methoxy-4-methyl-5-(oxan-4-yl)-8-oxa-2,5,6,12,16,17-hexaazatricyclo [11.3.1.0^3,7]heptadeca-1(16),3,6,13(17),14-pentaene] |
| ≤ 0.1 µM | Cc1c2c(nn1C(C)(C)CO)OCCCNc1nc(ncc1Cl)N2 [E451, 2-{14-Chloro-4-methyl-8-oxa-2,5,6,12,16,17-hexaazatricyclo[11. 3.1.0^3,7]heptadecal 1(16),3,6,13(17),14-pentaen-5-yl}-2-methylpropan-1-ol] |
| ≤ 0.1 µM | COC1CNc2nc(ncc2Cl)Nc2c(nn(CCN3CCOCC3)c2C)OC1 (single isomer, unassigned) [E223, 14-Chloro-10-methoxy-4-methyl-5-[2-(morpholin-4-yl)ethyl]-8-oxa-2,5,6,12,16,17-hexaazatricyclo [11.3.1.0^3,7]heptadeca-1(16),3,6,13(17),14-pentaene] |
